Patent US11371016B2, “Method for producing retinal tissue” (SUMITOMO PHARMA CO., LTD., priority 2016, dated 2022)

Key:
[1] = test system: human iPS cells (1231A3 strain); experiment: Differentiation of feeder-free cultured human iPS cells into retinal tissue; immunostaining of cell aggregates for Rx and Chx10; assay type: cell-based; conditions: IWR-1e 3 μM in step 2 and step 3, BMP4 1.5 nM from day 3
Experimental: Human iPS cells (1231A3 strain, obtained from Kyoto University) were cultured under feeder free according to the method described in “Scientific Reports, 4, 3594 (2014)”. As a feeder-free medium, StemFit (registered trade mark) medium (AK03N, manufactured by Ajinomoto Co., Inc.) was used, and as a feeder-free scaffold, Laminin 511-E8 (manufactured by Nippi, Inc.) was used. As a specific maintenance culture operation, subconfluent human iPS cells (1231A3 strain) were first washed with PBS, and dispersed into single cells by using TrypLE Select (manufactured by Life Technologies). Thereafter, the aforementioned human iPS cells dispersed into single cells were seeded in a plastic culture dish coated with Laminin 511-E8, and cultured under feeder-free conditions in StemFit (registered trade mark) medium in the presence of Y27632 (ROCK inhibiting substance, 10 μM). When a 6-well plate (manufactured by Iwaki, for cell culture, culture area 9.4 cm^2) was used as the aforementioned plastic culture dish, the number of plated cells for the aforementioned human iPS cells dispersed into single cells was adjusted to 1.0×10^4. One day after seeding, the entire amount of the medium was changed with StemFit (registered trade mark) medium free of Y27632. Thereafter, once in 1-2 days, the entire amount of the medium was changed with StemFit (registered trade mark) medium free of Y27632. Thereafter, the cells were cultured until 6 days after seeding when they became subconfluent (60% of culture area is covered with cells). As a specific example of step 1 (Precondition) of the present production method, the following operation was performed. Subconfluent human iPS cells (1231A3 strain) were first washed with PBS, and dispersed into single cells by using TrypLE Select (manufactured by Life Technologies). Thereafter, the aforementioned human iPS cells dispersed into single cells were seeded in a plastic culture dish (manufactured by Iwaki) coated with Laminin 511-E8, and cultured under feeder-free conditions in StemFit (registered trade mark) medium in the presence of Y27632 (ROCK inhibiting substance, 10 μM). When a 6-well plate (manufactured by Iwaki, culture area 9.4 cm^2) was used as the aforementioned plastic culture dish, the number of plated cells for the aforementioned human iPS cells dispersed into single cells was adjusted to 1.0×10^4. When a 60 mm dish (manufactured by Iwaki, for cell culture, culture area 21 cm^2) was used as the aforementioned plastic culture dish, the number of plated cells for the aforementioned human iPS cells dispersed into single cells was adjusted to 2.0×10^4. One day after seeding, the entire amount of the medium was changed with StemFit (registered trade mark) medium free of Y27632. […]

[2] = test system: human iPS cells (1231A3 strain); experiment: as above; assay type: cell-based; conditions: day 17; for proportion of Rx positive cells in the total cells: BMP4 1.5 nM from day 3
[3] = Precondition SB431542 5 μM + SAG 300 nM in step 1, day 17

Row | SMILES | Chx10 positive (strong positive) cells [1, 3] | proportion of Rx positive cells in the total cells [1, 3] | Chx10 positiveness in the cell aggregate ([1]; no Precondition in step 1, day 17) | proportion of Rx positive cells in the total cells ([1]; no Precondition in step 1, day 17 of suspension culture) | proportion of Rx positive cells in the total cells ([2]; Example 2 Condition 3: Precondition SAG 300 nM in step 1, IWR-1e 3 μM in step 2 and step 3) | Chx10 status of Rx positive cells (serial sections) ([2]; Example 2 Condition 3: Precondition SAG 300 nM, IWR-1e 3 μM in step 2 and step 3) | proportion of Rx positive cells in the total cells ([2]; Example 2 Condition 5: Precondition SAG 300 nM in step 1, SAG 30 nM in step 2, IWR-1e 3 μM in step 2 and step 3) | Chx10 status of Rx positive cells (serial sections) ([2]; Example 2 Condition 5: Precondition SAG 300 nM, SAG 30 nM in step 2, IWR-1e 3 μM in step 2 and step 3) | proportion of Rx positive cells in the total cells ([2]; Example 2 Condition 2: Precondition SAG 300 nM one day in step 1, no Wnt inhibiting substance, no SAG in step 2) | Chx10 status of Rx positive cells (serial sections) ([2]; Example 2 Condition 2: Precondition SAG 300 nM, no IWR-1e, no SAG in step 2) | proportion of Rx positive cells in the total cells ([2]; Example 2 Condition 4: Precondition SAG 300 nM in step 1, SAG 30 nM in step 2, no IWR-1e) | Chx10 status of Rx positive cells (serial sections) ([2]; Example 2 Condition 4: Precondition SAG 300 nM, SAG 30 nM in step 2, no IWR-1e) | neural tissue formation ([2]; Example 2 Conditions 2-5: Precondition treatment with SAG 300 nM in step 1, versus Condition 1 without Precondition (not formed))
1 | O=C(Nc1cccc2cccnc12)c1ccc(N2C(=O)[C@@H]3[C@H](C2=O)[C@@H]2C=C[C@H]3C2)cc1 [IWR-1e, 4-[(3aR,4S,7R,7aS)-1,3,3a,4,7,7a-hexahydro-1,3-dioxo-4,7-methano-2H-isoindol-2-yl]-N-8-quinolinyl-benzamide] | about 60% | about 60% | weak Chx10 positiveness | about 40% | about 90% | Chx10 co-positive | about 90% | Chx10 co-positive | – | – | – | – | –
2 | CNC1CCC(N(Cc2cccc(-c3ccncc3)c2)C(=O)c2sc3ccccc3c2Cl)CC1 (stereo not shown) [SAG] | – | – | – | – | – | – | – | – | about 40% | Chx10 co-positive | about 60% | Chx10 co-positive | a neural tissue was formed
